Like-named read-outs stand apart in the source and are kept apart here.
Legend:
FGFR1 (h) = FGFR1 (h) (Homo sapiens, UniProt P11362); test: FGFR1 (enzymatic assay), TR-FRET; type: biochemical
FGFR2 (h) = FGFR2 (h) (Homo sapiens, UniProt P21802); test: FGFR2 (enzymatic assay), TR-FRET; type: biochemical
FGFR3 (h) = FGFR3 (h) (Homo sapiens, UniProt P22607); test: FGFR3 (enzymatic assay), TR-FRET; type: biochemical; conditions: 25 μM ATP; pIC50 = -log IC50 (M); read-out: FGFR3 pIC50 (converted)
FGFR4 (h) = FGFR4 (h) (Homo sapiens, UniProt P22455); test: FGFR4 (enzymatic assay), TR-FRET; type: biochemical; conditions: 5 μM ATP; pIC50 = -log IC50 (M); read-out: FGFR 4 pIC50 (converted)
KDR (h) = KDR (h) (Homo sapiens, UniProt P35968); test: KDR (VEGFR2) (enzymatic assay), TR-FRET; type: biochemical; conditions: 3 μM ATP; pIC50 = -log IC50 (M); read-out: VEGFR KDR pIC50 (converted)
Experimental: KDR (VEGFR2) (Enzymatic Assay)
In a final reaction volume of 30 μL, KDR (h) (150 ng/ml) was incubated with 50 mM HEPES pH 7.5, 6 mM MnCl2, 1 mM DTT, 0.1 mM Na3VO4, 0.01% Triton-X-100, 500 nM Btn-Flt3 and 3 μM ATP in the presence of compound (1% DMSO final). After incubation for 120 minutes at room temperature the reaction was stopped with 2.27 nM EU-anti P-Tyr, 7 mM EDTA, 31.25 nM SA-XL-665 and 0.02% BSA which was present for 60 minutes at room temperature. Time-Resolved Fluorescence Resonance Energy Transfer (TR-FRET) signal (ex340 nm. Em 620 nm, em 655 nm) was measured afterwards and results are expressed in RFU (Relative Fluorescence Units). In this assay, the inhibitory effect of different compound concentrations (range 10 μM to 0.1 nM) was determined and used to calculate an IC50 (M) and pIC50 (−log IC50) value.

[1] = biological target: T1, Ba/F3-FGFR1-transfected cells (Homo sapiens, UniProt P11362); test: Ba/F3-FGFR1 (minus IL3 or plus IL3) cellular proliferation assay; type: cell-based; conditions: 24 hours, Alamar Blue
T1 construct: other: minus IL3; 24 hours, Alamar Blue
T1 sequence (P11362 whole entry, change not shown): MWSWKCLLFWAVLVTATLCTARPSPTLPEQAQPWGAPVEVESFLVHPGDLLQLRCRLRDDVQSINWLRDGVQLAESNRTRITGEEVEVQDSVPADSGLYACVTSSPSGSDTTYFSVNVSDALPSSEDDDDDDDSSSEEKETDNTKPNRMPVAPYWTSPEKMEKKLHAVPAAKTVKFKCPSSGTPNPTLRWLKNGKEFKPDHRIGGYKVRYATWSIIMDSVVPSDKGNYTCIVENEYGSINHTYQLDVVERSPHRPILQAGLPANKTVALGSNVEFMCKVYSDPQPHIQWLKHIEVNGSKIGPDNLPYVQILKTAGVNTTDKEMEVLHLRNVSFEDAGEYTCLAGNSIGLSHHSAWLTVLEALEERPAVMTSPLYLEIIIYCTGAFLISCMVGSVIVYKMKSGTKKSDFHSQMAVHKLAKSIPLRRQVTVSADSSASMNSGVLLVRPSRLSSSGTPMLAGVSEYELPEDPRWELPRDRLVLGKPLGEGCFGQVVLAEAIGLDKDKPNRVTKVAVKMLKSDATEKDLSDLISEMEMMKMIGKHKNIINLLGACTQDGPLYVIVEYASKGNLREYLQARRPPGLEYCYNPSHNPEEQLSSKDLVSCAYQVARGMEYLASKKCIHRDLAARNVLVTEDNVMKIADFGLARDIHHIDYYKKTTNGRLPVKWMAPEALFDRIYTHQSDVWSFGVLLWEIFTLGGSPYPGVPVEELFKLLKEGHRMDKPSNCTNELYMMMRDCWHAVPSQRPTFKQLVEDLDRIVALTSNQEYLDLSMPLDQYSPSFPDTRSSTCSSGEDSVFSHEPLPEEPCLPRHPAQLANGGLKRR
Experimental: Ba/F3-FGFR1 (Minus IL3 or Plus IL3) (Cellular Proliferation Assay)
(§1) In a 384 well plate, 100 nl of compound dilution in DMSO was sprayed before adding 50 μl cell culture medium (phenol red free RPMI-1640, 10% FBS, 2 mM L-Glutamine and 50 μg/ml Gentamycin) containing 20000 cells per well of Ba/F3-FGFR1-transfected cells. Cells were put in an incubator at 37° C. and 5% CO2. After 24 hours, 10 μl of Alamar Blue solution (0.5 mM K3Fe(CN)6, 0.5 mM K4Fe(CN)6, 0.15 mM Resazurin and 100 mM Phosphate Buffer) was added to the wells, incubated for 4 hours at 37° C. and 5% CO2 before RFU's (Relative Fluorescence Units) (ex. 540 nm., em. 590 nm.) were measured in a fluorescence plate reader.
(§2) In this assay, the inhibitory effect of different compound concentrations (range 10 μM to 0.1 nM) was determined and used to calculate an IC50 (M) and pIC50 (−log IC50) value. As a counterscreen the same experiment was performed in the presence of 10 ng/ml murine IL3.

[2] = biological target: T2, Ba/F3-FGFR3-transfected cells (Homo sapiens, UniProt P22607, cells depend on it, form not given); test: Ba/F3-FGFR3 (minus IL3 or plus IL3) cellular proliferation assay; type: cell-based; conditions: 24 hours, Alamar Blue
T2 construct: BAF3-FGFR3 (MIN IL3 pIC50); other: minus IL3; 24 hours, Alamar Blue
T2 sequence (P22607 whole entry, looked up, change not shown): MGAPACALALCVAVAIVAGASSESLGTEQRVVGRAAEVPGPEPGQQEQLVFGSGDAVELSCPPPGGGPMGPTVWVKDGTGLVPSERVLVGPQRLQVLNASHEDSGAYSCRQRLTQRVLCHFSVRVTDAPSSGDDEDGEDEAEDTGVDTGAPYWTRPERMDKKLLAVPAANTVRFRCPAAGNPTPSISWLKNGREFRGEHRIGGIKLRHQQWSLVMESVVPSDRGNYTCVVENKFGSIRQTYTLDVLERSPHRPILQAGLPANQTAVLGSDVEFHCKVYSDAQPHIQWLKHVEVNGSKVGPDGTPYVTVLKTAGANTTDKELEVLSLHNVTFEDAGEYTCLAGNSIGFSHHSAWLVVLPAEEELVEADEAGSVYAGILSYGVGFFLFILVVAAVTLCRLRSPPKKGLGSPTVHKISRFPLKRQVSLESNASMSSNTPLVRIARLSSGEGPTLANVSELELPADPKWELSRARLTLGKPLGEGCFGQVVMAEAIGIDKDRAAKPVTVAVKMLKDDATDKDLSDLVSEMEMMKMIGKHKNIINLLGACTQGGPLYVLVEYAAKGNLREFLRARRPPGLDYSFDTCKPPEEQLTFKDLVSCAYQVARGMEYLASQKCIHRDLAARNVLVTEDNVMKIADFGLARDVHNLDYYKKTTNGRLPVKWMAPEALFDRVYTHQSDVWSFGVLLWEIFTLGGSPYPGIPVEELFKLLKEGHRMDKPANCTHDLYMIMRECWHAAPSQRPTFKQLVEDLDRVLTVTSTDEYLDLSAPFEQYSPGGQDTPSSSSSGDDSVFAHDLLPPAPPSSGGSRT
Experimental: Ba/F3-FGFR3 (Minus IL3 or Plus IL3) (Cellular Proliferation Assay)
as §1, with “Ba/F3-FGFR3-transfected” for “Ba/F3-FGFR1-transfected”
as §2

[3] = biological target: T3, Ba/F3-KDR-transfected cells (Homo sapiens, UniProt P35968, cells depend on it, form not given); test: Ba/F3-KDR (minus IL3 or plus IL3) cellular proliferation assay; type: cell-based; conditions: 24 hours, Alamar Blue
T3 construct: BAF3-KDR (MIN IL3 pIC50); other: minus IL3; 24 hours, Alamar Blue
T3 sequence (P35968 whole entry, looked up, change not shown): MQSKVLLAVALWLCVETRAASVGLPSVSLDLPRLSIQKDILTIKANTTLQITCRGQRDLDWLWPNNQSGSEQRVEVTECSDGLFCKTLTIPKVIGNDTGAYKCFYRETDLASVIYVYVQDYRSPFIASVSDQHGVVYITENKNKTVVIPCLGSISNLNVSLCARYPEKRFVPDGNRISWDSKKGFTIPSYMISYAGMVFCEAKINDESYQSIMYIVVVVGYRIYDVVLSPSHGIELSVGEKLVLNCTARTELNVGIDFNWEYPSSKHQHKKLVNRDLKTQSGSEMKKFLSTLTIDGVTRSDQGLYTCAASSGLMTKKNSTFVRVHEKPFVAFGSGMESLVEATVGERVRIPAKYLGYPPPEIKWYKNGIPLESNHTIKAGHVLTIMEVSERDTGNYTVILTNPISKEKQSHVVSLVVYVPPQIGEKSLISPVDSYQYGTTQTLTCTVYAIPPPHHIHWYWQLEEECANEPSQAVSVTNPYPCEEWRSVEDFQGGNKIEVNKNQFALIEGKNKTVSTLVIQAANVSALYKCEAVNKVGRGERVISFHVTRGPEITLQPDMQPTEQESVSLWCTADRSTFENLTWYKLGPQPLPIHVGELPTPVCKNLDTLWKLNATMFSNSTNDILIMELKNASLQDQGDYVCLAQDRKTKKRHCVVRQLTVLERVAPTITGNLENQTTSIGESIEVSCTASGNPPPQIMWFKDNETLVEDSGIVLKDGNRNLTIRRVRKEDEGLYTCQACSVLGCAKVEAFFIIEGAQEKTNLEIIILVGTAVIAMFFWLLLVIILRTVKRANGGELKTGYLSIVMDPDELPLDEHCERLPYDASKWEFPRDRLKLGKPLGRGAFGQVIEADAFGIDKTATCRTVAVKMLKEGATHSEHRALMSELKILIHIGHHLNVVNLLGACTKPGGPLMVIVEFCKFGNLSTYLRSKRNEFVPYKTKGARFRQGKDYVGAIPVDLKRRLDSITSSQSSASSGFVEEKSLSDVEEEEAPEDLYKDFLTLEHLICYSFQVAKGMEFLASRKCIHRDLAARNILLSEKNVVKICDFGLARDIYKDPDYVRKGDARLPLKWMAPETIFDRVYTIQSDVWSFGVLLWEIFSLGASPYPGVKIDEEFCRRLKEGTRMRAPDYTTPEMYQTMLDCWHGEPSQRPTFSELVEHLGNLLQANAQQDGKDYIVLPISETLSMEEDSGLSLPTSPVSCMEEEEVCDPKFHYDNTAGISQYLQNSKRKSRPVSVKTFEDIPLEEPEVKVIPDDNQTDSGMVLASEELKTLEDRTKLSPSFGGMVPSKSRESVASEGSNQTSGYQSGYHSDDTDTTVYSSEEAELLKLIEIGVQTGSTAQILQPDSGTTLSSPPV
Experimental: Ba/F3-KDR (Minus IL3 or Plus IL3) (Cellular Proliferation Assay)
as §1, with “Ba/F3-KDR-transfected” for “Ba/F3-FGFR1-transfected”
as §2

[4] = biological target: Ba/F3-FGFR4-transfected cells (Homo sapiens, UniProt P22455, cells depend on it, form not given); test: Ba/F3-FGFR4 cellular proliferation assay; type: cell-based; conditions: 24 hours, Alamar Blue
Experimental: Ba/F3-FGFR4 (Cellular Proliferation Assay)
as §1, with “Ba/F3-FGFR4-transfected” for “Ba/F3-FGFR1-transfected”
In this assay, the inhibitory effect of different compound concentrations (range 10 μM to 0.1 nM) was determined and used to calculate an IC50 (M) and pIC50 (−log IC50) value.

FGFR1 = biological target: T4, FGFR1 (Homo sapiens, UniProt P11362); test: Enzyme binding assay (KINOMEscan) FGFR1; conditions: FGFR1_pKd, pKd = -log Kd (M)
T4 construct: purchased DiscoveRx Corporation
T4 sequence (P11362 22-822): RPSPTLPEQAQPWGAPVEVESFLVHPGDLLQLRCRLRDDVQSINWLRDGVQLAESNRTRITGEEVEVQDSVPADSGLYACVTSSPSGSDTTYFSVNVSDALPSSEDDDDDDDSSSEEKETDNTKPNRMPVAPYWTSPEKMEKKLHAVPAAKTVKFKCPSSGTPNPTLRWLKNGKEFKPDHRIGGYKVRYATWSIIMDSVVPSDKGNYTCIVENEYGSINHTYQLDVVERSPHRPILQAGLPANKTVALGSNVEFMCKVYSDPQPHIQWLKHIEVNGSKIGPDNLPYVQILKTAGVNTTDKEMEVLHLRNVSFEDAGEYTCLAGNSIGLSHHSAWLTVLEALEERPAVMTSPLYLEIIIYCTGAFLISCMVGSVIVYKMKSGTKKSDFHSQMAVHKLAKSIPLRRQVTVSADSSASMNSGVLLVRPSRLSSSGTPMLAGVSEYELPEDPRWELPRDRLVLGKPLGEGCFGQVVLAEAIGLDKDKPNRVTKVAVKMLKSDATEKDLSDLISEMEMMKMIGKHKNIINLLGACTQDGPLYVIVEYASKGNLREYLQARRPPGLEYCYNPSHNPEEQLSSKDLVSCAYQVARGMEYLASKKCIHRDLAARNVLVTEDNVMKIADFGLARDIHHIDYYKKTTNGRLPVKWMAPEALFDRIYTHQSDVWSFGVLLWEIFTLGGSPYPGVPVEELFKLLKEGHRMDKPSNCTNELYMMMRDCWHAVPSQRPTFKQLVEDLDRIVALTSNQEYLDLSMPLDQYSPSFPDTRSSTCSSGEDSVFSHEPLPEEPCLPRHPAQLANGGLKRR
Experimental: (§3) Enzyme Binding Assays (KINOMEscan®)
(§4) Kinase enzyme binding affinities of compounds disclosed herein were determined using the KINOMEscan® technology performed by DiscoveRx Corporation, San Diego, Calif., USA (www.kinomescan.com).

FGFR2 = biological target: T5, FGFR2 (Homo sapiens, UniProt P21802); test: Enzyme binding assay (KINOMEscan) FGFR2; conditions: pKd = -log Kd (M), read-out: FGFR2_pKd (converted)
T5 construct: purchased DiscoveRx Corporation
Experimental: as §3, §4

FGFR3 = biological target: T6, FGFR3 (Homo sapiens, UniProt P22607); test: Enzyme binding assay (KINOMEscan) FGFR3; conditions: pKd = -log Kd (M), read-out: FGFR3_pKd (converted)
T6 construct: purchased DiscoveRx Corporation
T6 sequence (P22607 23-806): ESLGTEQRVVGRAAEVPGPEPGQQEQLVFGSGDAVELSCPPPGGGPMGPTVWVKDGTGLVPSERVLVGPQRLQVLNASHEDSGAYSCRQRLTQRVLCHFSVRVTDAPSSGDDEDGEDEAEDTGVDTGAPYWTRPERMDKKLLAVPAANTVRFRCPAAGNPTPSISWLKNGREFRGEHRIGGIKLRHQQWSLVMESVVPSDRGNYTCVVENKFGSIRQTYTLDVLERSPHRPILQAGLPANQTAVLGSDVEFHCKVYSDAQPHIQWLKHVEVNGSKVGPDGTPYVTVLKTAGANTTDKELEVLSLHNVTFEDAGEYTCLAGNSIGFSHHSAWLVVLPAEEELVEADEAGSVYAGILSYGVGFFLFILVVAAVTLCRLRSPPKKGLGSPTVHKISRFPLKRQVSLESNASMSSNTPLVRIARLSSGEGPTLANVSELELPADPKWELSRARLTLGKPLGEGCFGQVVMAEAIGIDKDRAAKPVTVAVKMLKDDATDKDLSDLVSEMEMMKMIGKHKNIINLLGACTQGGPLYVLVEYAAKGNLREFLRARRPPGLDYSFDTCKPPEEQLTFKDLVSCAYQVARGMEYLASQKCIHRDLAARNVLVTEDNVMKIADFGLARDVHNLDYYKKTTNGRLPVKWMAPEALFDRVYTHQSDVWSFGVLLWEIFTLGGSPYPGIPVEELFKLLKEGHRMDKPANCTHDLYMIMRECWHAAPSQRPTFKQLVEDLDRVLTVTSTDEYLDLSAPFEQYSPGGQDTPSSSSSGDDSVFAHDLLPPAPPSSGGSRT
Experimental: as §3, §4

FGFR4 = biological target: T7, FGFR4 (Homo sapiens, UniProt P22455); test: Enzyme binding assay (KINOMEscan) FGFR4; conditions: pKd = -log Kd (M), read-out: FGFR4_pKd (converted)
T7 construct: purchased DiscoveRx Corporation
Experimental: as §3, §4

VEGFR2 = biological target: T8, VEGFR2 (Homo sapiens, UniProt P35968); test: Enzyme binding assay (KINOMEscan) VEGFR2; conditions: pKd = -log Kd (M), read-out: VEGFR2_pKd (converted)
T8 construct: purchased DiscoveRx Corporation
Experimental: as §3, §4

[5] = 0.4 μM ATP, pIC50 = -log IC50 (M), read-out: FGFR 2 pIC50 (converted)

Sequence of FGFR1 (h) (P11362 22-822): as the sequence (P11362 22-822) above
Sequence of FGFR3 (h) (P22607 23-806): as the sequence (P22607 23-806) above

SMILES	IC50 (FGFR1 (h)) [nM]	IC50 (FGFR2 (h)) [M]	IC50 (FGFR3 (h)) [M]	IC50 (FGFR4 (h)) [M]	IC50 (KDR (h)) [M]	BAF3-FGFR1 (MIN IL3 pIC50) [1]	BAF3-FGFR3 (MIN IL3 pIC50) [2]	BAF3-KDR (MIN IL3 pIC50) [3]	BAF3-FGFR4 (pIC50) [4]	Kd (FGFR1) [M]	Kd (FGFR2) [M]	Kd (FGFR3) [M]	Kd (FGFR4) [M]	Kd (VEGFR2) [M]	melting point [°C]	IC50 (FGFR2 (h); [5]) [M]
COc1cc(OC)c(Cl)c(N(Cc2ncc[nH]2)c2ccc3ncn(-c4cnn(C)c4)c(=O)c3c2)c1Cl [Compound 13]	15.8	1.58e-08	1.26e-08	1.26e-07	2.51e-07	5.5	5.9	5.1	5.2	–	–	–	–	–	–	–
COc1cc(OC)cc(N(CCO)c2ccc3ncn(C4CCNCC4)c(=O)c3c2)c1 [Compound 47]	–	–	–	–	–	–	–	–	–	> 3.16e-06	> 3.16e-06	> 3.16e-06	> 3.16e-06	> 3.16e-06	165	–
CNCCN(c1cc(OC)cc(OC)c1)c1ccc2ncn(C3CCOCC3)c(=O)c2c1 [Compound 71]	–	–	–	–	–	–	–	–	–	6.31e-07	3.98e-07	1.26e-06	> 3.16e-06	> 3.16e-06	135	–
COc1cc(OC)c(F)c(N(Cc2ncc[nH]2)c2ccc3ncn(-c4ccccc4)c(=O)c3c2)c1F [Compound 4]	15.8	–	7.94e-09	2.51e-08	> 1e-06	6.1	6.2	<5	5.4	–	–	–	–	–	–	1.26e-08
CNCCN(c1ccc2ncn(C3CCNCC3)c(=O)c2c1)c1cc(OC)cc(OC)c1F [Compound 58]	–	–	–	–	–	–	–	–	–	3.16e-07	3.98e-07	6.31e-07	2e-06	> 3.16e-06	176	–
CNCCN(c1ccc2ncn(C3CCOCC3)c(=O)c2c1)c1cc(OC)cc(OC)c1F [Compound 70]	–	–	–	–	–	–	–	–	–	3.16e-08	3.98e-08	7.94e-08	1e-07	> 3.16e-06	178	–
COc1cc(OC)c(F)c(N(CCO)c2ccc3ncn(-c4cccnc4)c(=O)c3c2)c1F [Compound 29]	–	–	–	–	–	–	–	–	–	1.58e-08	3.16e-09	6.31e-09	5.01e-08	6.31e-07	112	–
COc1cc(OC)c(F)c(N(Cc2ncc[nH]2)c2ccc3ncn(C4CCNCC4)c(=O)c3c2)c1 [Compound 45]	–	–	–	–	–	–	–	–	–	7.94e-08	3.16e-08	7.94e-08	5.01e-07	> 3.16e-06	260	–
COc1cc(OC)c(F)c(N(CCO)c2ccc3ncn(-c4ccncc4)c(=O)c3c2)c1 [Compound 38]	–	–	–	–	–	–	–	–	–	1e-07	2e-08	3.16e-08	1.58e-07	> 3.16e-06	209	–
COc1cc(OC)c(F)c(N(CCCO)c2ccc3ncn(C4CCNCC4)c(=O)c3c2)c1F [Compound 53]	–	–	–	–	–	–	–	–	–	5.01e-08	3.16e-08	6.31e-08	2e-07	> 3.16e-06	184	–
COc1cc(OC)c(F)c(N(CCO)c2ccc3ncn(C4CCOCC4)c(=O)c3c2)c1 [Compound 63]	–	–	–	–	–	–	–	–	–	3.98e-07	6.31e-08	1.26e-07	1.58e-06	> 3.16e-06	191	–
COc1cc(OC)cc(/C(=C\C#N)c2ccc3ncn(-c4cnn(C)c4)c(=O)c3c2)c1 [Compound 49]	–	–	–	–	–	–	–	–	–	2e-06	3.98e-07	7.94e-07	> 3.16e-06	> 3.16e-06	217	–
COc1cc(OC)cc(N(Cc2ncc[nH]2)c2ccc3ncn(C4CCNCC4)c(=O)c3c2)c1 [Compound 44]	–	–	–	–	–	–	–	–	–	3.98e-07	1.58e-07	3.98e-07	> 3.16e-06	> 3.16e-06	220	–
COc1cccc(C(=O)c2ccc3ncn(-c4cnn(C)c4)c(=O)c3c2)c1 [Compound 23]	> 1000	–	> 1e-06	> 1e-06	> 1e-06	<5	<5	<5	<5	–	–	–	–	–	–	> 1e-06
COc1cc(OC)c(F)c(N(Cc2nccn2S(=O)(=O)N(C)C)c2ccc3ncn(-c4cccnc4)c(=O)c3c2)c1F [Compound 35]	–	–	–	–	–	–	–	–	–	5.01e-08	1.58e-08	3.98e-08	1.26e-07	1.26e-06	128	–
COc1cc(OC)cc(N(CCCO)c2ccc3ncn(C4CCNCC4)c(=O)c3c2)c1 [Compound 55]	–	–	–	–	–	–	–	–	–	> 3.16e-06	2.51e-06	2.51e-06	> 3.16e-06	> 3.16e-06	167	–
